Data: US20240151732A1, “EX VIVO METHOD FOR ANALYSING A TISSUE SAMPLE USING PROTEOMIC PROFILE MATCHING, AND ITS USE FOR THE DIAGNOSIS, PROGNOSIS OF PATHOLOGIES AND FOR PREDICTING RESPONSE TO TREATMENTS” (Université de Bordeaux, priority 2021, published 2024)

Key:
HCC cells = conditions: in vitro and in vivo; Xu et al. [23]; cited from earlier work
HUH7 cells = assay: growth of HUH7 cells; assay type: cell-based; conditions: in our hands
advanced HCC [1] = conditions: phase III study, first line; Kudo et al. [10]; cited from earlier work
advanced HCC [2] = conditions: SHARP test; proportion of good responders to sorafenib; cited from earlier work

In the case of `Cc1ncc(C[n+]2csc(CCO)c2C)c(=O)[nH]1` [oxythiamine], the “efficacy in HCC cells” value (HCC cells) is given as “effective” and the “effect on the growth of HUH7 cells” value (HUH7 cells) is given as “did not confirm the effect”.
In the case of `COc1cc2nccc(Oc3ccc(NC(=O)NC4CC4)c(Cl)c3)c2cc1C(N)=O` [lenvatinib], the “overall survival compared to sorafenib” value (advanced HCC [1]) is given as “non-inferiority”.
In the case of `CNC(=O)c1cc(Oc2ccc(NC(=O)Nc3ccc(Cl)c(C(F)(F)F)c3)cc2)ccn1` [sorafenib], the objective response (advanced HCC [2]) is given as 2%.
